Source: patent publication US6774211B1, “Peptide antiangiogenic drugs” (Abbott Laboratories, priority 1998, dated 2004)
Where a SMILES comes first, the peptide text is derived from it. [ ]: non-standard residue; d: D form. Nva = CCC[C@H](N)C(=O)O; Sar = CNCC(=O)O

System: Human Microvascular Endothelial Cells (HMVEC)
Assay: Human microvascular endothelial cell (HMVEC) migration assay, modified Boyden chamber
Type: cell-based
Conditions: migration stimulated with 15 ng/ml bFGF/VEGF, compared to positive control
Procedure: The human microvascular endothelial (HMVEC) migration assay was run according to the procedure of S. S. Tolsma, O. V. Volpert, D. J. Good, W. F. Frazier, P. J. Polverini and N. Bouck, J. Cell Biol. 122, 497-511 (1993).
The HMVEC migration assay was carried out using Human Microvascular Endothelial Cells-Dermal (single donor) and Human Microvascular Endothelial Cells, (neonatal). The BCE or HMVEC cells were starved overnight in DME containing 0.1% bovine serum albumin (BSA). Cells were then harvested with trypsin and resuspended in DME with 0.1% BSA at a concentration of 1.5×10^6 cells per ml. Cells were added to the bottom of a 48 well modified Boyden chamber (Nucleopore Corporation, Cabin John, Md.). The chamber was assembled and inverted, and cells were allowed to attach for 2 hours at 37° C. to polycarbonate chemotaxis membranes (5 μm pore size) that had been soaked in 0.1% gelatin overnight and dried. The chamber was then reinverted, and test substances (total volume of 50 μl), including activators, 15 ng/ml bFGF/VEGF, were added to the wells of the upper chamber. The apparatus was incubated for 4 hours at 37° C. Membranes were recovered, fixed and stained (Diff Quick, Fisher Scientific) and the number of cells that had migrated to the upper chamber per […] high power fields counted. Background migration to DME+0.1 BSA was subtracted and the data reported as the number of cells migrated per 10 high power fields (400×) or, when results from multiple experiments were combined, as the percent inhibition of migration compared to a positive control.

Row | Molecule | % Inhib. @ 20 nM [%] | % Inhib. @ 10 nM [%]
1 | N-Ac-Sar-Gly-Val-D-Ile-Thr-DNva-Ile-Arg-ProNHCH2CH3 [Example 42] | 60.2 | –
2 | CCC[C@H](NC(=O)[C@@H](NC(=O)[C@H](NC(=O)[C@@H](NC(=O)CNC(=O)CN(C)C(C)=O)C(C)C)[C@H](C)CC)[C@@H](C)O)C(=O)N[C@H](C(=O)N[C@@H](CCCNC(=N)N)C(=O)N1CCC[C@H]1C(=O)NCC)[C@@H](C)CC [Example 1, N-Ac-Sar-Gly-Val-D-Ile-Thr-Nva-Ile-Arg-ProNHCH2CH3] (Ac-[Sar]GV[dI]T[Nva]IRP-NHEt) | 87.3 | 76.9
3 | N-Propionyl-Sar-Gly-Val-D-Ile-Thr-Nva-Ile-Arg-ProNHCH2CH3 [Example 56] | 49.9 | –
4 | N-Ac-Sar-Gly-Val-D-Ile-Thr-Nva-Ile-Arg-ProNHCH(CH3)2 [Example 4] | 71.3 | –
5 | N-Nicotinyl-Sar-Gly-Val-D-Ile-Thr-Nva-Ile-Arg-ProNHCH2CH3 [Example 55] | 59.2 | –
6 | N-Ac-Sar-Gly-Val-D-Ile-Thr-Gln-Ile-Arg-ProNHCH2CH3 [Example 43] | – | 94.1
7 | N-Succinyl-Sar-Gly-Val-D-Ile-Thr-Nva-Ile-Arg-ProNHCH2CH3 [Example 54] | 81.3 | –
8 | N-(2-Furoyl)-Sar-Gly-Val-D-Ile-Thr-Nva-Ile-Arg-ProNHCH2CH3 [Example 59] | 82.3 | –
9 | N-Ac-Sar-Gly-Val-D-Ile-Thr-Met-Ile-Arg-ProNHCH2CH3 (Ac-[Sar]GV[dI]TMIRP-NHEt; SMILES CCNC(=O)[C@@H]1CCCN1C(=O)[C@H](CCCNC(=N)N)NC(=O)[C@@H](NC(=O)[C@H](CCSC)NC(=O)[C@@H](NC(=O)[C@H](NC(=O)[C@@H](NC(=O)CNC(=O)CN(C)C(C)=O)C(C)C)[C@H](C)CC)[C@@H](C)O)[C@@H](C)CC) [Example 51] | 67.0 | –
10 | N-Ac-Sar-Gly-Val-D-Cha-Thr-Nva-Ile-Arg-ProNHCH2CH3 [Example 28] | – | 47.0
11 | N-Ac-Sar-Gly-Val-D-Ile-Thr-Allylgly-Ile-Arg-ProNHCH2CH3 [Example 49] | 83.4 | –
12 | H-Sar-Gly-Val-D-Ile-Thr-Nva-Ile-Arg-ProNHCH2CH3 [Example 66] | 76.1 | –
13 | N-Butyryl-Sar-Gly-Val-D-Ile-Thr-Nva-Ile-Arg-ProNHCH2CH3 [Example 60] | 75.3 | –
14 | N-Shikimyl-Sar-Gly-Val-D-Ile-Thr-Nva-Ile-Arg-ProNHCH2CH3 [Example 58] | 68.8 | –
15 | N-Ac-Sar-Gly-Val-D-Ile-Thr-Val-Ile-Arg-ProNHCH2CH3 (Ac-[Sar]GV[dI]TVIRP-NHEt) [Example 47] | 69.7 | –
16 | N-(Tetrahydro-2-furoyl)-Sar-Gly-Val-D-Ile-Thr-Nva-Ile-Arg-ProNHCH2CH3 [Example 61] | – | 83.7
17 | N-(2-Me-Nicotinyl)-Sar-Gly-Val-D-Ile-Thr-Nva-Ile-Arg-ProNHCH2CH3 [Example 53] | 76.7 | –
18 | N-Ac-Sar-Gly-Val-D-Val-Thr-Nva-Ile-Arg-ProNHCH2CH3 [Example 18] | – | 51.4
19 | N-Ac-Sar-Gly-Val-D-Ile-Thr-Ala-Ile-Arg-ProNHCH2CH3 [Example 46] | 77.5 | –
20 | N-Ac-Sar-Gly-Val-D-Ile-Thr-Nva-Ile-Arg-ProNHCH2CH2OCH3 [Example 11] | 70.4 | –
21 | N-Ac-Sar-Gly-Val-D-Ile-Thr-Nva-Ile-Arg-ProNHethyl-(1-pyrrolidine) [Example 5] | – | 87.2
22 | N-MeOacetyl-Sar-Gly-Val-D-Ile-Thr-Nva-Ile-Arg-ProNHCH2CH3 [Example 57] | 56.6 | –
